Patent US9340513B2, “Propenoate derivatives of betulin” (GlaxoSmithKline LLC, priority 2011, dated 2016)

System: HIV-1 (strain IIIB)
Experiment: MT4 Cell Antiviral Assay
Format: cell-based
Details: Human immunodeficiency virus 1, 120 h; HIV-1 strain IIIB in MT4 cells, 5 days, Cell Titer-Glo; 50% decrease in HIV-induced cytopathic effect
Method: Antiviral HIV activity and compound-induced cytotoxicity were measured in parallel based on a modified protocol of the propidium iodide based procedure in the human T-cell lymphotropic virus transformed cell line MT4. Aliquots of the test compounds were serially diluted in DMSO plated in 96-well plates. Exponentially growing MT4 cells were harvested and pelleted. Cell pellets were resuspended in fresh medium (RPMI 1640, 10% FCS, and gentamycin. Cell aliquots were infected by the addition of HIV-1 (strain IIIB) diluted to give a viral multiplicity of infection of 300×TCID50/million cells. A similar cell aliquot was diluted with medium to provide a mock-infected control. Cell infection was allowed to proceed for 1 hr at 37° C. in a tissue culture incubator with humidified 5% CO2 atmosphere. After the 1 hr incubation the virus/cell suspensions were diluted with fresh medium, and added to each well of the plate containing pre-diluted compound. Plates were then placed in a tissue culture incubator with humidified 5% CO2 for 5 days. […] The plates were analyzed in an automated plate reader for luminescence.assay. The control and standard used was efavirinz tested over a concentration range of 0.001 to 1 μM in every assay. The expected range of IC50 values for efavirinz is 0.1 to 1 nM.
The antiviral effect of a test compound is reported as an IC50, i.e. the inhibitory concentration that would produce a 50% decrease in the HIV-induced cytopathic effect. This effect is measured by the amount of test compound required to restore 50% of the cell growth of HIV-infected MT4 cells, compared to uninfected MT4 cell controls. IC50 was calculated by RoboSage, Automated Curve Fitting Program.
For each assay plate, the results (of wells containing uninfected cells or infected cells with no compound were averaged, respectively. For measurements of compound-induced cytotoxicty, results from wells containing various compound concentrations and uninfected cells were compared to the average of uninfected cells without compound treatment. Percent of cells remaining is determined by the following formula: Percent of cells remaining=(compound-treated uninfected cells/untreated uninfected cells)×100.
A level of percent of cells remaining of 79% or less indicates a significant level of direct compound-induced cytotoxicity for the compound at that concentration. When this condition occurs the results from the compound-treated infected wells at this concentration are not included in the calculation of IC50.
For measurements of compound antiviral activity, results from wells containing various compound concentrations and infected cells are compared to the average of uninfected and infected cells without compound treatment. Percent inhibition of virus is determined by the following formula: Percent inhibition of virus=(1−((ave. untreated uninfected cells−treated infected cells)/(ave. untreated uninfected cells−ave. untreated infected cells)))×100

SMILES | IC50 [nM]
CC(C)C1=C2[C@H]3CC[C@@H]4[C@@]5(C)CC[C@H](OC(=O)CC(C)(C)C(=O)O)C(C)(C)[C@@H]5CC[C@@]4(C)[C@]3(C)CC[C@@]2(/C=C/C(=O)N[C@@H](C)c2ccccn2)CC1=O [Example 15, 4-(((3aS,5aR,5bR,7aR,9S,11aR,11bR,13aS)-1-Isopropyl-5a,5b,8,8,11a-pentamethyl-2-oxo-3a-((E)-3-oxo-3-(((S)-1-(pyridin-2-yl)ethyl)amino)prop-1-en-1-yl)-3,3a,4,5,5a,5b,6,7,7a,8,9,10,11,11a,11b,12,13,13a-octadecahydro-2H-cyclopenta[a]chrysen-9-yl)oxy)-2,2-dimethyl-4-oxobutanoic acid] | 10 to 250
CC(C)C1=C2[C@H]3CC[C@@H]4[C@@]5(C)CC[C@H](OC(=O)CC(C)(C)C(=O)O)C(C)(C)[C@@H]5CC[C@@]4(C)[C@]3(C)CC[C@@]2(/C=C/C(=O)Nc2ccc(Cl)cc2)CC1=O [Example 2, 4-(((3aS,5aR,5bR,7aR,9S,11aR,11bR,13aS)-3a-((E)-3-((4-Chlorophenyl)amino)-3-oxoprop-1-en-1-yl)-1-isopropyl-5a,5b,8,8,11a-pentamethyl-2-oxo-3,3a,4,5,5a,5b,6,7,7a,8,9,10,11,11a,11b,12,13,13a-octadecahydro-2H-cyclopenta[a]chrysen-9-yl)oxy)-2,2-dimethyl-4-oxobutanoic acid] | 10 to 250
CC(C)C1=C2[C@H]3CC[C@@H]4[C@@]5(C)CC[C@H](OC(=O)CC(C)(C)C(=O)O)C(C)(C)[C@@H]5CC[C@@]4(C)[C@]3(C)CC[C@@]2(/C=C/C(=O)Nc2ccccn2)CC1=O [Example 19] | 10 to 250
CC(C)C1=C2[C@H]3CC[C@@H]4[C@@]5(C)CC[C@H](OC(=O)CC(C)(C)C(=O)O)C(C)(C)[C@@H]5CC[C@@]4(C)[C@]3(C)CC[C@@]2(/C=C/C(=O)NC2(c3ccc(Cl)cc3)CC2)CC1=O [Example 1, 4-(((3aS,5aR,5bR,7aR,9S,11aR,11bR,13aS)-3a-((E)-3-((1-(4-Chlorophenyl)cyclopropyl)amino)-3-oxoprop-1-en-1-yl)-1-isopropyl-5a,5b,8,8,11a-pentamethyl-2-oxo-3,3a,4,5,5a,5b,6,7,7a,8,9,10,11,11a,11b,12,13,13a-octadecahydro-2H-cyclopenta[a]chrysen-9-yl)oxy)-2,2-dimethyl-4-oxobutanoic acid] | < 10
C/C(=C\[C@@]12CC[C@]3(C)[C@H](CC[C@@H]4[C@@]5(C)CC[C@H](OC(=O)CC(C)(C)C(=O)O)C(C)(C)[C@@H]5CC[C@]43C)C1=C(C(C)C)C(=O)C2)C(=O)NC1(c2cccc(Cl)c2)CC1 [Example 29, 4-(((3aS,5aR,5bR,7aR,9S,11aR,11bR,13aS)-3a-((E)-3-((1-(3-Chlorophenyl)cyclopropyl)amino)-2-methyl-3-oxoprop-1-en-1-yl)-1-isopropyl-5a,5b,8,8,11a-pentamethyl-2-oxo-3,3a,4,5,5a,5b,6,7,7a,8,9,10,11,11a,11b,12,13,13a-octadecahydro-2H-cyclopenta[a]chrysen-9-yl)oxy)-2,2-dimethyl-4-oxobutanoic acid] | 10 to 250
CC(C)C1=C2[C@H]3CC[C@@H]4[C@@]5(C)CC[C@H](OC(=O)CC(C)(C)C(=O)O)C(C)(C)[C@@H]5CC[C@@]4(C)[C@]3(C)CC[C@@]2(/C=C/C(=O)N[C@@H](C)c2ccccc2Cl)CC1=O [Example 25, 4-(((3aS,5aR,5bR,7aR,9S,11aR,11bR,13aS)-3a-((E)-3-(((S)-1-(2-Chlorophenyl)ethyl)amino)-3-oxoprop-1-en-1-yl)-1-isopropyl-5a,5b,8,8,11a-pentamethyl-2-oxo-3,3a,4,5,5a,5b,6,7,7a,8,9,10,11,11a,11b,12,13,13a-octadecahydro-2H-cyclopenta[a]chrysen-9-yl)oxy)-2,2-dimethyl-4-oxobutanoic acid] | 10 to 250
CC(C)C1=C2[C@H]3CC[C@@H]4[C@@]5(C)CC[C@H](OC(=O)CC(C)(C)C(=O)O)C(C)(C)[C@@H]5CC[C@@]4(C)[C@]3(C)CC[C@@]2(/C=C/C(=O)N[C@H](C)c2ccc(Cl)cn2)CC1=O [Example 5, 4-(((3aS,5aR,5bR,7aR,9S,11aR,11bR,13aS)-3a-((E)-3-(((R)-1-(5-Chloropyridin-2-yl)ethyl)amino)-3-oxoprop-1-en-1-yl)-1-isopropyl-5a,5b,8,8,11a-pentamethyl-2-oxo-3,3a,4,5,5a,5b,6,7,7a,8,9,10,11,11a,1 b,12,13,13a-octadecahydro-2H-cyclopenta[a]chrysen-9-yl)oxy)-2,2-dimethyl-4-oxobutanoic acid] | < 10
CC(C)C1=C2[C@H]3CC[C@@H]4[C@@]5(C)CC[C@H](OC(=O)CC(C)(C)C(=O)O)C(C)(C)[C@@H]5CC[C@@]4(C)[C@]3(C)CC[C@@]2(/C=C/C(=O)N[C@H](C)c2ncccn2)CC1=O [Example 10, 4-(((3aS,5aR,5bR,7aR,9S,11aR,11bR,13aS)-1-Isopropyl-5a,5b,8,8,11a-pentamethyl-2-oxo-3a-((E)-3-oxo-3-(((R)-1-(pyrimidin-2-yl)ethyl)amino)prop-1-en-1-yl)-3,3a,4,5,5a,5b,6,7,7a,8,9,10,11,11a,11b,12,13,13a-octadecahydro-2H-cyclopenta[a]chrysen-9-yl)oxy)-2,2-dimethyl-4-oxobutanoic acid] | 10 to 250
CC(C)C1=C2[C@H]3CC[C@@H]4[C@@]5(C)CC[C@H](OC(=O)CC(C)(C)C(=O)O)C(C)(C)[C@@H]5CC[C@@]4(C)[C@]3(C)CC[C@@]2(/C=C/C(=O)N[C@@H](C)c2ncccn2)CC1=O [Example 11, 4-(((3aS,5aR,5bR,7aR,9S,11aR,11bR,13aS)-1-isopropyl-5a,5b,8,8,11a-pentamethyl-2-oxo-3a-((E)-3-oxo-3-(((S)-1-(pyrimidin-2-yl)ethyl)amino)prop-1-en-1-yl)-3,3a,4,5,5a,5b,6,7,7a,8,9,10,11,11a,11b,12,13,13a-octadecahydro-2H-cyclopenta[a]chrysen-9-yl)oxy)-2,2-dimethyl-4-oxobutanoic acid] | 10 to 250
CC(C)C1=C2[C@H]3CC[C@@H]4[C@@]5(C)CC[C@H](OC(=O)CC(C)(C)C(=O)O)C(C)(C)[C@@H]5CC[C@@]4(C)[C@]3(C)CC[C@@]2(/C=C/C(=O)N[C@H](C)c2ccc(Cl)cc2)CC1=O [Example 4, 4-(((3aS,5aR,5bR,7aR,9S,11aR,11bR,13aS)-3a-((E)-3-(((R)-1-(4-Chlorophenyl)ethyl)amino)-3-oxoprop-1-en-1-yl)-1-isopropyl-5a,5b,8,8,11a-pentamethyl-2-oxo-3,3a,4,5,5a,5b,6,7,7a,8,9,10,11,11a,11b,12,13,13a-octadecahydro-2H-cyclopenta[a]chrysen-9-yl)oxy)-2,2-dimethyl-4-oxobutanoic acid] | 10 to 250
CC(C)C1=C2[C@H]3CC[C@@H]4[C@@]5(C)CC[C@H](OC(=O)CC(C)(C)C(=O)O)C(C)(C)[C@@H]5CC[C@@]4(C)[C@]3(C)CC[C@@]2(/C=C/C(=O)N[C@@H](C)c2cccc(Cl)c2)CC1=O [Example 23, 4-(((3aS,5aR,5bR,7aR,9S,11aR,11bR,13aS)-3a-((E)-3-(((S)-1-(3-Chlorophenyl)ethyl)amino)-3-oxoprop-1-en-1-yl)-1-isopropyl-5a,5b,8,8,11a-pentamethyl-2-oxo-3,3a,4,5,5a,5b,6,7,7a,8,9,10,11,11a,11b,12,13,13a-octadecahydro-2H-cyclopenta[a]chrysen-9-yl)oxy)-2,2-dimethyl-4-oxobutanoic acid] | 10 to 250
CC(C)C1=C2[C@H]3CC[C@@H]4[C@@]5(C)CC[C@H](OC(=O)CC(C)(C)C(=O)O)C(C)(C)[C@@H]5CC[C@@]4(C)[C@]3(C)CC[C@@]2(/C=C/C(=O)NCC2CCCCC2)CC1=O [Example 33, 4-(((3aS,5aR,5bR,7aR,9S,11aR,11bR,13aS)-3a-((E)-3-((Cyclohexylmethyl)amino)-3-oxoprop-1-en-1-yl)-1-isopropyl-5a,5b,8,8,11a-pentamethyl-2-oxo-3,3a,4,5,5a,5b,6,7,7a,8,9,10,11,11a,11b,12,13,13a-octadecahydro-2H-cyclopenta[a]chrysen-9-yl)oxy)-2,2-dimethyl-4-oxobutanoic acid] | < 10
